Results published in PMC7674464, “Effect of pH on the influenza fusion peptide properties unveiled by constant-pH molecular dynamics simulations combined with experiment” (Scientific Reports, 2020).
Like-named read-outs stand apart in the source and are kept apart here. Where no end group is shown, it is not given here.

What was measured:
[1] = 16000 nM, pH 7.4
[2] = not given; remark: listed apart in the source
[3] = target: Nterm1 (UniProt position 344, SIQSRGLFGAI); assay: NMR; conditions: micelle-bound peptide with lysine tail; cited from earlier work
[4] = target: Asp19 (UniProt position 362, WTGMIDGWYGY); assay: NMR; conditions: micelle-bound peptide with lysine tail; cited from earlier work
[5] = target: Glu11 (UniProt position 354, IAGFIEGGWTG); assay: NMR; conditions: micelle-bound peptide with lysine tail; cited from earlier work

| Substance | percentage of lipid mixing [1] [%] | partition coefficient (Kp) between the aqueous and lipid phases (pH 5) | partition coefficient (Kp) between the aqueous and lipid phases (pH 7.4) | amide I band peak position [2] [cm⁻¹] | pKa [3] | pKa [4] | pKa [5] |
| --- | --- | --- | --- | --- | --- | --- | --- |
| GLFGAIAGFIEGGWTGMIDGWYGS [influenza fusion peptide] | 23.9 ± 1.8 | (1.0 ± 0.1) × 10^4 | (2.9 ± 0.4) × 10^4 | 1660 |  |  |  |
| Influenza hemagglutinin HA2 fusion peptide (HAfp23) with C-terminal hydrophilic lysine tail (Influenza A virus (subtype H1; strain not stated)) |  |  |  |  | 8.8 | 4.35 | 5.31 |
